Experimental data reported in US20140336219A2, “Pharmaceutical Compositions and Administrations Thereof” (Vertex Pharmaceuticals Incorporated, priority 2011, published 2014).

Target: T1, ΔF508-CFTR (Homo sapiens, UniProt P13569, DEL508-508)
T1 construct: expressed in transfected cells
Test: Membrane potential optical assay for ΔF508-CFTR potentiation
Type: cell-based
Conditions: NIH 3T3 cells
From the text: The assay utilizes fluorescent voltage sensing dyes to measure changes in membrane potential using a fluorescent plate reader (e.g., FLIPR III, Molecular Devices, Inc.) as a readout for increase in functional ΔF508-CFTR in NIH 3T3 cells. The driving force for the response is the creation of a chloride ion gradient in conjunction with channel activation by a single liquid addition step after the cells have previously been treated with compounds and subsequently loaded with a voltage sensing dye. To identify potentiators of ΔF508-CFTR, a double-addition HTS assay format was developed. This HTS assay utilizes fluorescent voltage sensing dyes to measure changes in membrane potential on the FLIPR III as a measurement for increase in gating (conductance) of ΔF508 CFTR in temperature-corrected ΔF508 CFTR NIH 3T3 cells. The driving force for the response is a Cl^− ion gradient in conjunction with channel activation with forskolin in a single liquid addition step using a fluorescent plate reader such as FLIPR III after the cells have previously been treated with potentiator compounds (or DMSO vehicle control) and subsequently loaded with a redistribution dye. Bath Solution #1: (in mM) NaCl 160, KCl 4.5, CaCl2 2, MgCl2 1, HEPES 10, pH 7.4 with NaOH. Chloride-free bath solution: Chloride salts in Bath Solution #1 (above) are substituted with gluconate salts. […]

T1 sequence (P13569 with tags, fused parts or gaps DEL508-508): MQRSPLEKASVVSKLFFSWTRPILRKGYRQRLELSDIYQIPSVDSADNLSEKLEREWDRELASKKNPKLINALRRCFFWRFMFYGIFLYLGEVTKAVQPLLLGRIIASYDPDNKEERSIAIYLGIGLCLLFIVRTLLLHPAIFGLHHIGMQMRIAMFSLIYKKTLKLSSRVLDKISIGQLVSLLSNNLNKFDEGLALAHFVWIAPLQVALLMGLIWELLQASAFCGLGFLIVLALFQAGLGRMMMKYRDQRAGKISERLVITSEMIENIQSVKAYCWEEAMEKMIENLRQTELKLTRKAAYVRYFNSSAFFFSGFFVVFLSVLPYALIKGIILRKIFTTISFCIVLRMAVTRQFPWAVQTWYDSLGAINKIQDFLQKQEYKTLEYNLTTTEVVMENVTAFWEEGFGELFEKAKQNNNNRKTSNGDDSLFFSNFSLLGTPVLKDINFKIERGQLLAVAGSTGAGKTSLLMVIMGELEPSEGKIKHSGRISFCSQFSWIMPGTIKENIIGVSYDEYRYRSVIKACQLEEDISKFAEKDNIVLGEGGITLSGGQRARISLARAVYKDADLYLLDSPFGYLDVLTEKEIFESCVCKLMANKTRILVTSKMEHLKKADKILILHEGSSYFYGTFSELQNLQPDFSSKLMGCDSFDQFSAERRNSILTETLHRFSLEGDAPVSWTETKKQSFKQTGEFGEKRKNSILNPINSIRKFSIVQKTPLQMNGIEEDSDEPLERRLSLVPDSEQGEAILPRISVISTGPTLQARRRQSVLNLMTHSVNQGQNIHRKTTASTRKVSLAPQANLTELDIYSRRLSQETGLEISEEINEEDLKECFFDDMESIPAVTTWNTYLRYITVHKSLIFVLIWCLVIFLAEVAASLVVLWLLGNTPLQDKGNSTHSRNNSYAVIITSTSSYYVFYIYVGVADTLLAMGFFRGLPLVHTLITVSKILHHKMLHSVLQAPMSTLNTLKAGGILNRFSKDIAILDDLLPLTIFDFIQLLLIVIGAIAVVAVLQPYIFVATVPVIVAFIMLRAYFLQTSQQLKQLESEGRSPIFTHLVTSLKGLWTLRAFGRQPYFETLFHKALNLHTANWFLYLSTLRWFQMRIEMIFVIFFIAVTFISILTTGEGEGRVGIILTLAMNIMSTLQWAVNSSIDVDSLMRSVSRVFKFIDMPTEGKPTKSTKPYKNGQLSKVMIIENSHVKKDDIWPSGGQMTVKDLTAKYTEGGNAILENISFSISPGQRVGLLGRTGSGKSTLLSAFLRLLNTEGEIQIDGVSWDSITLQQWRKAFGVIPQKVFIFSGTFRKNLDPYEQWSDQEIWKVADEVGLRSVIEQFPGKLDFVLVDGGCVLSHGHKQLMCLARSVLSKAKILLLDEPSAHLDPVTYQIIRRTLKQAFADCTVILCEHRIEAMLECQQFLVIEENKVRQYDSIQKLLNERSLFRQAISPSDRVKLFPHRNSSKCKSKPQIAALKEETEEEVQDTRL

CC(C)(C)c1cc(C(C)(C)C)c(NC(=O)c2c[nH]c3ccccc3c2=O)cc1O [Compound 1, N-[2,4-bis(1,1-dimethylethyl)-5-hydroxyphenyl]-1,4-dihydro-4-oxoquinoline-3-carboxamide]
EC50: < 10 µM
